Values quoted from earlier work as cited in patent US6811840B1, “Decorative transfer process” (Stahls' Inc., priority 1996, dated 2004).

Structure (SMILES)	solubility in water (in words)	solubility in water (at 20° C.)
Oc1ccc2ccccc2c1N=Nc1ccccc1 [Sudan Orange 220]	insoluble in water	
CCCCCNc1ccc(NCCCCC)c2c1C(=O)c1ccccc1C2=O [Oil Blue N]	insoluble in water	
CCCCNc1ccc(NCCCC)c2c1C(=O)c1ccccc1C2=O [Sudan Blue 670]		less than 1 gram of dye per liter of water
CC1(C)Nc2cccc3c(N=Nc4ccc(N=Nc5ccccc5)c5ccccc45)ccc(c23)N1 [Sudan Black X60]	insoluble in water	
Cc1ccccc1/N=N/c1ccc(/N=N/c2c(O)ccc3ccccc23)c(C)c1 [Oil Red 234]	insoluble in water	
